Data published in patent US8835422B2, “Substituted imidazoheterocycle derivatives” (Cara Therapeutics, Inc., priority 2008, dated 2014).

Assays:
Assay type in all cases: cell-based
[1] = molecular target: T1, human CB2 receptor (hCB2) (Homo sapiens, UniProt P34972); assay: cAMP assay (LANCE TR-FRET) in CHO-K1 cells stably expressing hCB2
T1 construct: host or cells: CHO-K1
Method: (§1) The ability of compounds to act as agonists or inverse agonists at human CB2 and CB1 receptors (hCB2, hCB1, respectively) and at the rat CB2 receptor (rCB2) was determined by measuring changes in intracellular cAMP levels. Chinese Hamster Ovary (CHO-K1) cell lines stably expressing hCB2 (Genebank: X74328) or hCB1 (Genebank: X54937) were purchased from Euroscreen (Gosselies, Belgium). The rat CB2 receptor was expressed from genomic DNA (provided by M. Abood, California Pacific Medical Center) in CHO-K1 cells from expression plasmid vector, pcDNA3.1.
(§2) Receptor mediated responses were determined by measuring changes in intracellular cAMP using LANCE cAMP detection kit (cat #AD0264, Perkin Elmer, Wellesley, Mass.) based on time-resolved fluorescence resonance energy transfer (TR-FRET).
(§3) On the day of the experiment, cells were spun at low speed for 5 min at room temperature. […] Cell clumps were removed by filtering through cell strainer 40 μm (BD Falcon, Discovery Labware, Bedford, Mass.) and diluted to 2×10^5 cells/mL. Antibody supplied with the LANCE cAMP immunoassay kit was then added according to the manufacturer's instructions. An aliquot of cells was taken for un-induced controls. […] Cells were then incubated for 30 min at room temperature prior to adding to Proxiplates containing test compounds (final DMSO concentration was less than 0.5%) with a Multidrop bulk dispenser, followed by a sixty minute incubation at room temperature. The response was stopped by addition of the detection mix supplied with the LANCE kit. The reagents were allowed to equilibrate for three hours prior to reading on an Envision multi-mode detector (Perkin-Elmer). TR-FRET was measured using a 330-380 nm excitation filter, a 665 nm emission filter, dichroic mirror 380 nm and Z=1 mm. Cyclic AMP concentrations in each well were back-calculated from a cAMP standard curve run concurrently during each assay. Each plate contained 16 wells of forskolin stimulated cells and 16 wells of forskolin plus CP55,940-treated cells. […] Concentrations of cAMP were expressed as a percent of the difference of these two groups of wells.

[2] = molecular target: human CB1 receptor (hCB1) (Homo sapiens, UniProt P21554); assay: cAMP assay (LANCE TR-FRET) in CHO-K1 cells stably expressing hCB1
Chain of human CB1 receptor (hCB1) (P21554 whole entry): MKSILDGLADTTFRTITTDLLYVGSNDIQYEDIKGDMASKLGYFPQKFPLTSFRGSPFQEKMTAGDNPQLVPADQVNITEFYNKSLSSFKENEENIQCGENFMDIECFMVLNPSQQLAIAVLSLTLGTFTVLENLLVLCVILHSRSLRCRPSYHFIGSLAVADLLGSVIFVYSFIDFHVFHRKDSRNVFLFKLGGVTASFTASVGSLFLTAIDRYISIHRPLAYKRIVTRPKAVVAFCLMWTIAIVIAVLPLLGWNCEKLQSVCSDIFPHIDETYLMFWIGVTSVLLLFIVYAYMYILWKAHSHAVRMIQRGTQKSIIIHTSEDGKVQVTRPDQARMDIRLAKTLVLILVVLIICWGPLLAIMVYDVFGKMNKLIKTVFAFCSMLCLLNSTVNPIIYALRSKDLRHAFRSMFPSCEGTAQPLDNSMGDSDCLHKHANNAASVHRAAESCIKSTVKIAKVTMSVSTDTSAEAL
Method: as §1, §2, §3

rat CB2 receptor (rCB2) = molecular target: T2, rat CB2 receptor (rCB2) (Rattus norvegicus, UniProt Q9QZN9); assay: cAMP assay (LANCE TR-FRET) in CHO-K1 cells expressing rat CB2
T2 construct: expressed in transfected cells; host or cells: CHO-K1 (plasmid pcDNA3.1)
T2 sequence (Q9QZN9 1-360): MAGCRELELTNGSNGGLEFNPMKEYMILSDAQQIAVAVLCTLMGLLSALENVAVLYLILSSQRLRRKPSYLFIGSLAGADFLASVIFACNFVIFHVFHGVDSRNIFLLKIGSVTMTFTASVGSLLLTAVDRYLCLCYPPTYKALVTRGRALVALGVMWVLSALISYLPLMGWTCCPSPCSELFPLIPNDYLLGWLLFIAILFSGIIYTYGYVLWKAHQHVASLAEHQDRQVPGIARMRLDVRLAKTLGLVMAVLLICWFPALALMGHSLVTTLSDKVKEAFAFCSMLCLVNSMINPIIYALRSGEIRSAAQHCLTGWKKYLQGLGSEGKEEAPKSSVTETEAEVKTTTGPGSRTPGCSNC
Method: as §1, §2, §3

T1 sequence (P34972 whole entry): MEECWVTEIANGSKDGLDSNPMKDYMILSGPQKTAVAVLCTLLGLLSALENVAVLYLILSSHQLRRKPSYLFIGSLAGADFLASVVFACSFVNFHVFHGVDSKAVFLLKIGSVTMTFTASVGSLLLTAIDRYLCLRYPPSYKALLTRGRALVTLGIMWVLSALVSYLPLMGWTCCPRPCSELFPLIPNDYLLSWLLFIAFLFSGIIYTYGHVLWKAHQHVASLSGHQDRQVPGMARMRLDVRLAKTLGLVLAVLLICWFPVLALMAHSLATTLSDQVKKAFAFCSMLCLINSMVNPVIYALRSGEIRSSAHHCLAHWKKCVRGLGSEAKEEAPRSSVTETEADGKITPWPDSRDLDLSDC

| SMILES | EC50 [1] | EC50 [2] | EC50 (rat CB2 receptor (rCB2)) |
| --- | --- | --- | --- |
| CNC(=O)[C@@H](NC(=O)c1nc(-c2ccc(Cl)cc2F)n2c1COCCC2)C(C)(C)C [Compound 1-13, (S)-3-(4-chloro-2-fluorophenyl)-N-(3,3-dimethyl-1-(methylamino)-1-oxobutan-2-yl)-5,6,7,9-tetrahydroimidazo[5,1-c][1,4]oxazepine-1-carboxamide] | 0.1 to 10 nM | 0.1 to 10 nM |  |
| O=C(N[C@@H]1CCCc2ccccc21)c1nc(-c2ccc(F)c(F)c2)n2c1CCCCC2 [Compound 1-21, (R)-3-(3,4-difluorophenyl)-N-(1,2,3,4-tetrahydronaphthalen-1-yl)-6,7,8,9-tetrahydro-5H-imidazo[1,5-a]azepine-1-carboxamide] | 0.1 to 10 nM |  |  |
| CC(C)(C)[C@H](NC(=O)c1nc(-c2ccc(F)c(F)c2)n2c1COCCC2)C(=O)NCCO [Compound 1-11, (S)-3-(3,4-difluorophenyl)-N-(1-(2-hydroxyethylamino)-3,3-dimethyl-1-oxobutan-2-yl)-5,6,7,9-tetrahydroimidazo[5,1-c][1,4]oxazepine-1-carboxamide] | 10 to 100 nM |  |  |
| O=C(N[C@@H]1c2ccccc2C[C@H]1O)c1nc(-c2ccc(F)c(F)c2)n2c1CCCCC2 [Compound 1-17, 3-(3,4-difluorophenyl)-N-((1R,2R)-2-hydroxy-2,3-dihydro-1H-inden-1-yl)-6,7,8,9-tetrahydro-5H-imidazo[1,5-a]azepine-1-carboxamide] | 10 to 100 nM | 10 to 100 nM |  |
| CNC(=O)[C@@H](NC(=O)c1nc(-c2ccccc2)n2c1CCNCC2)C(C)(C)C [Compound 3-8, (S)-N-(3,3-dimethyl-1-(methylamino)-1-oxobutan-2-yl)-3-phenyl-6,7,8,9-tetrahydro-5H-imidazo[1,5-d][1,4]diazepine-1-carboxamide] |  |  | 10 to 100 nM |
| CC(C)(C)[C@H](NC(=O)c1nc(-c2cc(F)ccc2F)n2c1CCCCC2)C(=O)N1CCC1 [Compound 1-5, (S)—N-(1-(azetidin-1-yl)-3,3-dimethyl-1-oxobutan-2-yl)-3-(2,5-difluorophenyl)-6,7,8,9-tetrahydro-5H-imidazo[1,5-a]azepine-1-carboxamide] | 0.1 to 10 nM | 0.1 to 10 nM |  |
| COC(=O)[C@@H](NC(=O)c1nc(-c2ccc(F)c(F)c2)n2c1CCCCC2)C(C)(C)C [Compound 1-23, (S)-methyl 2-(3-(3,4-difluorophenyl)-6,7,8,9-tetrahydro-5H-imidazo[1,5-a]azepine-1-carboxamido)-3,3-dimethylbutanoate] | 0.1 to 10 nM | 0.1 to 10 nM |  |
| O=C(N[C@H]1c2ccccc2C[C@@H]1O)c1nc(-c2ccc(F)c(F)c2)n2c1CCCCC2 [Compound 1-15, 3-(3,4-difluorophenyl)-N-((1S,2S)-2-hydroxy-2,3-dihydro-1H-inden-1-yl)-6,7,8,9-tetrahydro-5H-imidazo[1,5-a]azepine-1-carboxamide] | 0.1 to 10 nM |  |  |
| CC(C)(C)[C@H](NC(=O)c1nc(-c2ccccc2)n2c1CCCCC2)C(=O)N1CCC1 [Compound 1-4, (S)—N-(1-(azetidin-1-yl)-3,3-dimethyl-1-oxobutan-2-yl)-3-phenyl-6,7,8,9-tetrahydro-5H-imidazo[1,5-a]azepine-1-carboxamide] | 0.1 to 10 nM | 10 to 100 nM |  |
| CNC(=O)[C@@H](NC(=O)c1nc(-c2cc(F)ccc2F)n2c1COCCC2)C(C)(C)C [Compound 1-12, (S)-3-(2,5-difluorophenyl)-N-(3,3-dimethyl-1-(methylamino)-1-oxobutan-2-yl)-5,6,7,9-tetrahydroimidazo[5,1-c][1,4]oxazepine-1-carboxamide] | 0.1 to 10 nM | 0.1 to 10 nM |  |
| CNC(=O)[C@@H](NC(=O)c1nc(-c2ccc(F)c(F)c2)n2c1CCCC2)C(C)(C)C [Compound 1-7, (S)-3-(3,4-difluorophenyl)-N-(3,3-dimethyl-1-(methyl-amino)-1-oxobutan-2-yl)-5,6,7,8-tetrahydroimidazo[1,5-a]pyridine-1-carboxamide] | 0.1 to 10 nM | 0.1 to 10 nM |  |
| O=C(NC1CCc2ccccc21)c1nc(-c2ccc(F)c(F)c2)n2c1CCCCC2 (stereo not drawn) [Compound 1-19, 3-(3,4-difluorophenyl)-N-(2,3-dihydro-1H-inden-1-yl)-6,7,8,9-tetrahydro-5H-imidazo[1,5-a]azepine-1-carboxamide] | 0.1 to 10 nM |  |  |
| COC(=O)[C@@H](NC(=O)c1nc(-c2ccccc2)n2c1CCCCC2)C(C)(C)C [Compound 1-24, (S)-methyl 3,3-dimethyl-2-(3-phenyl-6,7,8,9-tetrahydro-5H-imidazo[1,5-a]azepine-1-carboxamido)butanoate] | 0.1 to 10 nM | 0.1 to 10 nM |  |
| O=C(N[C@H]1CCCc2ccccc21)c1nc(-c2ccc(F)c(F)c2)n2c1CCCCC2 [Compound 1-20, (S)-3-(3,4-difluorophenyl)-N-(1,2,3,4-tetrahydronaphthalen-1-yl)-6,7,8,9-tetrahydro-5H-imidazo[1,5-a]azepine-1-carboxamide] | 0.1 to 10 nM |  |  |
| O=C(N[C@@H]1c2ccccc2C[C@@H]1O)c1nc(-c2ccc(F)c(F)c2)n2c1CCCCC2 [Compound 1-16, 3-(3,4-difluorophenyl)-N-((1R,2S)-2-hydroxy-2,3-dihydro-1H-inden-1-yl)-6,7,8,9-tetrahydro-5H-imidazo[1,5-a]azepine-1-carboxamide] | 10 to 100 nM | 10 to 100 nM |  |
| CNC(=O)[C@@H](NC(=O)c1nc(-c2ccccc2)n2c1CCOCC2)C(C)(C)C [Compound 1-8, (S)—N-(3,3-dimethyl-1-(methylamino)-1-oxobutan-2-yl)-3-phenyl-5,6,8,9-tetrahydroimidazo[1,5-d][1,4]oxazepine-1-carboxamide] | 10 to 100 nM |  |  |
| O=C(N[C@H]1c2ccccc2C[C@H]1O)c1nc(-c2ccc(F)c(F)c2)n2c1CCCCC2 [Compound 1-18, 3-(3,4-difluorophenyl)-N-((1S,2R)-2-hydroxy-2,3-dihydro-1H-inden-1-yl)-6,7,8,9-tetrahydro-5H-imidazo[1,5-a]azepine-1-carboxamide] | 0.1 to 10 nM | 10 to 100 nM |  |
| CNC(=O)[C@@H](NC(=O)c1nc(-c2ccc(F)c(F)c2)n2c1CN(C)C(C)CC2)C(C)(C)C (single isomer, unassigned) [Compound 2-4] | 10 to 100 nM |  |  |
| CC(C)(C)[C@H](NC(=O)c1nc(-c2ccccc2)n2c1CCCCC2)C(=O)NCCF [Compound 1-22, (S)—N-(1-(2-fluoroethylamino)-3,3-dimethyl-1-oxobutan-2-yl)-3-phenyl-6,7,8,9-tetrahydro-5H-imidazo[1,5-a]azepine-1-carboxamide] | 0.1 to 10 nM | 10 to 100 nM |  |
| CC[C@H](C)[C@H](NC(=O)c1nc(-c2ccc(F)c(F)c2)n2c1CCCCC2)C(N)=O [Compound 1-14, N-((2S,3S)-1-amino-3-methyl-1-oxopentan-2-yl)-3-(3,4-difluorophenyl)-6,7,8,9-tetrahydro-5H-imidazo[1,5-a]azepine-1-carboxamide] | 0.1 to 10 nM | 0.1 to 10 nM |  |
| CNC(=O)[C@@H](NC(=O)c1nc(-c2ccc(F)c(F)c2)n2c1CN(C)CC(C)(C)C2)C(C)(C)C [Compound 2-1, (S)-3-(3,4-difluorophenyl)-N-(3,3-dimethyl-1-(methylamino)-1-oxobutan-2-yl)-6,6,8-trimethyl-6,7,8,9-tetrahydro-5H-imidazo[1,5-a][1,4]diazepine-1-carboxamide] | 10 to 100 nM |  |  |
| CC(C)(C)[C@@H](CO)NC(=O)c1nc(-c2ccc(F)c(F)c2)n2c1CCCCC2 [Compound 1-6, (S)-3-(3,4-difluorophenyl)-N-(1-hydroxy-3,3-dimethylbutan-2-yl)-6,7,8,9-tetrahydro-5H-imidazo[1,5-a]azepine-1-carboxamide] | 0.1 to 10 nM |  |  |
| CCN1Cc2c(C(=O)N[C@H](C(=O)NC)C(C)(C)C)nc(-c3ccc(F)c(F)c3)n2CC(C)C1 (mixture of isomers) [Compound 2-3, (S)-3-(3,4-difluorophenyl)-N-(3,3-dimethyl-1-(methylamino)-1-oxobutan-2-yl)-8-ethyl-6-methyl-6,7,8,9-tetrahydro-5H-imidazo[1,5-a][1,4]diazepine-1-carboxamide] | 10 to 100 nM | 10 to 100 nM |  |
